Source: ChEMBL document CHEMBL1153846, “QSAR studies for diarylpyrimidines against HIV-1 reverse transcriptase wild-type and mutant strains” (Eur J Med Chem, 2009)

Key:
[1] = Hydrophobic index, Log P of the compound; format: physicochemical; conditions: octanol/water
[2] = tested on: Human immunodeficiency virus type 1 reverse transcriptase (Human immunodeficiency virus 1), Q72547 [L100I]; assay: Inhibition of HIV1 reverse transcriptase L100I mutant
[3] = tested on: Human immunodeficiency virus type 1 reverse transcriptase (Human immunodeficiency virus 1), Q72547 [Y181C]; assay: Inhibition of HIV1 reverse transcriptase Y181C mutant
[4] = biological target: Human immunodeficiency virus type 1 reverse transcriptase (Human immunodeficiency virus 1) (UniProt Q72547); assay: Inhibition of HIV1 wild type reverse transcriptase
[5] = tested on: Human immunodeficiency virus type 1 reverse transcriptase (Human immunodeficiency virus 1), Q72547 [[…]]; assay: Inhibition of HIV1 reverse transcriptase Y188L mutant

| Compound | logP ([1]; read-out: logP) | log(1/C) [2] | log(1/C) [3] | log(1/C) [4] | log(1/C) [5] | logP [1] |
| --- | --- | --- | --- | --- | --- | --- |
| Cc1cc(C)c(Nc2nc(Nc3ccc(C#N)cc3)ncc2C)c(C)c1 | 1.92 | 7.92 | 7.92 | 8.77 | 7.74 |  |
| Cc1cnc(Nc2ccc(C#N)cc2)nc1Nc1c(C)cc(C#N)cc1C | 1.49 | 7.8 | 7.92 | 9.1 | 7.8 |  |
| Cc1cc(C#N)cc(C)c1Nc1nc(Nc2ccc(C#N)cc2)ncc1C#N | 1.06 | 7.04 | 7.12 | 9.3 | 8.07 |  |
| Cc1cc(C#N)cc(C)c1Sc1ccnc(Nc2ccc(C#N)cc2)n1 | 2.06 | 6.76 | 7.17 | 8.24 | 7.36 |  |
| Cc1cc(C)c(Nc2nc(Nc3ccc(C#N)cc3)ncc2C#N)c(C)c1 | 1.49 | 7.2 | 7.4 | 9 | 7.11 |  |
| Cc1cc(C#N)cc(C)c1Oc1ccnc(Nc2ccc(C#N)cc2)n1 | 1.39 | 7.14 | 7.43 | 8.96 | 7.72 |  |
| Cc1cc(C#N)cc(C)c1Oc1nc(Nc2ccc(C#N)cc2)ncc1[N+](=O)[O-] |  | 6.92 | 6.52 | 7.74 | 6.11 | 0.7 |
| Cc1cc(C#N)cc(C)c1Oc1nc(Nc2ccc(C#N)cc2)nc(N)c1Br [ETRAVIRINE] | 1.54 | 8.48 | 8.15 | 8.85 | 8.34 |  |
| Cc1cc(C#N)cc(C)c1Oc1nc(Nc2ccc(C#N)cc2)ncc1Cl | 1.29 | 8.12 | 7.47 | 8.85 | 8.32 |  |
| Cc1cc(Br)c(Nc2ccnc(Nc3ccc(C#N)cc3)n2)c(Br)c1 | 1.44 | 8.52 | 8.47 | 9.15 |  |  |
| C=Cc1cnc(Nc2ccc(C#N)cc2)nc1Nc1c(C)cc(C)cc1C | 2.1 | 7.46 | 7.44 | 8.6 | 7.54 |  |
| CC(=O)Nc1cnc(Nc2ccc(C#N)cc2)nc1Oc1c(C)cc(C#N)cc1C | -0.38 |  |  |  |  |  |
| C#Cc1cc(C)c(Oc2ccnc(Nc3ccc(C#N)cc3)n2)c(C)c1 | 1.53 | 6.73 | 6.77 | 8.26 | 7.3 |  |
| Cc1cc(Br)cc(C)c1Nc1ccnc(Nc2ccc(C#N)cc2)n1 | 1.54 | 7.12 | 7.77 | 8.64 | 7.16 |  |
| Cc1cc(C)c(Sc2ccnc(Nc3ccc(C#N)cc3)n2)c(C)c1 | 2.16 | 7.27 | 7.6 | 8.44 | 7.7 |  |
| Cc1cc(C)c(Nc2nc(Nc3ccc(C#N)cc3)ncc2-c2ccccc2)c(C)c1 | 3.14 |  |  | 7.62 |  |  |
| Cc1cc(C#N)cc(C)c1Nc1ccnc(Nc2ccc(C#N)cc2)n1 | 1.21 | 7.47 | 8.15 | 9.4 | 8.11 |  |

| Compound | logP ([1]; read-out: logP) | log(1/C) [2] | log(1/C) [3] | log(1/C) [4] | log(1/C) [5] | logP [1] |
| --- | --- | --- | --- | --- | --- | --- |
| Cc1cc(Cl)cc(Cl)c1Nc1ccnc(Nc2ccc(C#N)cc2)n1 | 0.89 | 7.22 | 7.74 | 9 | 7.07 |  |
| Cc1cc(C#N)cc(C)c1Oc1nc(Nc2ccc(C#N)cc2)ncc1N | -0.21 | 7.8 | 8.03 | 9 | 8.24 |  |
| Cc1cc(C#N)cc(C)c1Nc1nc(Nc2ccc(C#N)cc2)ncc1Br | 1.39 | 8.15 | 8.02 | 9.4 | 8.48 |  |
| N#Cc1ccc(Nc2nccc(Nc3c(Cl)cc(Cl)cc3Cl)n2)cc1 | 0.51 | 7.85 | 8 | 9.15 | 7 |  |
| Cc1cc(C#N)cc(C)c1Nc1nc(Nc2ccc(C#N)cc2)nc(NO)c1Br | 2.18 | 8.92 | 7.92 | 8.4 |  |  |
| N#Cc1ccc(Nc2nccc(Nc3c(Br)cc(F)cc3Br)n2)cc1 | 0.68 | 7.82 | 7.82 | 9.22 | 7.19 |  |
| Cc1cc(C)c(Nc2ccnc(Nc3ccc(C#N)cc3)n2)c(C)c1 [DAPIVIRINE] | 1.64 | 7.74 | 8.12 | 9 | 7.32 |  |
| Cc1cc(C#N)cc(C)c1Nc1nc(Nc2ccc(C#N)cc2)ncc1Cl | 1.11 | 8.28 | 7.85 | 8.92 | 8.33 |  |
| Cc1cc(C)c(Oc2ccnc(Nc3ccc(C#N)cc3)n2)c(C)c1 | 1.82 | 7.66 | 7.42 | 8.54 | 7.26 |  |
| C#Cc1cnc(Nc2ccc(C#N)cc2)nc1Nc1c(C)cc(C)cc1C | 1.63 |  |  |  |  |  |
| Cc1cc(C#N)cc(C)c1Nc1nc(Nc2ccc(C#N)cc2)nc(CO)c1Br | 0.81 | 8.7 | 8.22 | 8.4 | 8.22 |  |
| Cc1cc(C)c(Oc2nc(Nc3ccc(C#N)cc3)ncc2Br)c(C)c1 | 1.82 | 7.96 | 7.44 | 8.26 | 7.57 |  |
| Cc1cccc(C)c1Nc1ccnc(Nc2ccc(C#N)cc2)n1 | 1.49 | 6.67 | 7.21 | 9.15 | 6.59 |  |
| Cc1cc(Cl)cc(C)c1Nc1ccnc(Nc2ccc(C#N)cc2)n1 | 1.27 | 6.49 | 7.72 | 8.68 | 6.94 |  |
| Cc1cc(Br)cc(C)c1Oc1ccnc(Nc2ccc(C#N)cc2)n1 | 1.72 | 6.95 | 7.23 | 8.54 | 7.1 |  |
| Cc1cc(C)c(Nc2nc(Nc3ccc(C#N)cc3)ncc2Cl)c(C)c1 | 1.72 | 7.77 | 7.49 | 8.57 | 7.47 |  |
